# Measurements: patent US8586354B2, “Adenoviruses, nucleic acids that code for the same and the use of said viruses” (priority 2003, dated 2013)
# How the values were obtained:
# [1] = tested on: HeLa cells; test: Oncolytic assay with daunorubicine, HeLa; format: cell-based; conditions: 40 ng/ml daunorubicine
# Protocol: (§1) In the practising of the oncolytic assays the following procedure was followed: 200,000 cells (HeLa and U2OS, respectively) were plated into each well of a 6 well plate. On the next day 40 ng/ml (final concentration) of daunorubicine were added. After 3 hours of incubation the cells were infected with 10 and 30 pfu dl520/cell, respectively. Subsequently, the cells were incubated in cytostatic free medium. After 3-5 days the cells were stained using crystal violet.
# [2] = tested on: U2OS cells; test: Oncolytic assay with daunorubicine, U2OS; format: cell-based, human; conditions: 40 ng/ml daunorubicine
# Protocol: as §1
# [3] = tested on: U373 tumour cells; test: Southern blot of adenoviral replication in U373 cells after cytostatic; format: cell-based
# Protocol: In order to determine the effect of Irinotecan on adenoviral replication 10^6 U373 tumour cells were plated in 10 cm^2 Petri dishes. In a first reaction 5 μM Irinotecan was added after 24 hours. After another 24 hours the cells were infected with 10 pfu/cell dl520. After incubation of 3 days without Irinotecan DNA was isolated in accordance with the procedure described in example 10.
# In a parallel reaction the thus prepared U373-cells were not pre-incubated with Irinotecan. After 48 hours of cultivating the cells without Irinotecan, they were infected with 10 pfu/cell dl520 and subsequently incubated without Irinotecan for another 3 days. DNA was isolated as described above.
# Subsequently 2 μg DNA were digested with restriction enzyme Kpn I and a Southern Blot analysis performed. A part of the adenoviral genome (position: 22734-24235) generated by means of PCR was used as a probe.
# In order to test the effect of Trichostatin A on adenoviral replication, 10^6 U373 tumour cells were plated in 10 cm^2 Petri dishes. After 24 hours 0.25, 0.5 and 0.75 μM Trichostatin A was added. After another 24 hours the cells were infected with 10 pfu/cell dl520.
# After 3 days of incubation in medium without Trichostatin DNA was isolated. Subsequently 2 μg DNA were digested with restriction enzyme Kpn I and a Southern Blot analysis performed. […]
# [4] = tested on: Coxsackievirus-adenovirus-receptor (CAR); test: FACS analysis of CAR expression on U373 cells; format: cell-based; conditions: 1 μM Trichostatin
# Protocol: 200,000 U373 cells were plated in 6 well plates. After 24 hours the cells were cultivated with 1 μM Trichostatin for 24 hours. After another 24 hours the cells were isolated. Subsequently, analysis of CAR expression was performed according to a standard protocol using Facs-analysis and the primary antibody anti-CAR clone RmcB from the company Upstate, and a rabbit-anti-mouse FITC as secondary antibody (company DAKO).
compound,measurement,setting,value
COc1cccc2c1C(=O)c1c(O)c3c(c(O)c1C2=O)C[C@@](O)(C(C)=O)C[C@@H]3O[C@H]1C[C@H](N)[C@H](O)[C@H](C)O1 [daunorubicine],effect on replication of dl520,[1],induces the replication of dl520
same,effect on replication of dl520,[2],induces the replication of dl520
CCc1c2c(nc3ccc(OC(=O)N4CCC(N5CCCCC5)CC4)cc13)-c1cc3c(c(=O)n1C2)COC(=O)[C@]3(O)CC [Irinotecan],adenoviral replication (dl520) compared to untreated control,"[3]; 5 μM Irinotecan 24 h before 10 pfu/cell dl520, 3 days",significantly increased
CC(/C=C/C(=O)NO)=C\[C@@H](C)C(=O)c1ccc(N(C)C)cc1 [Trichostatin A],adenoviral replication (dl520) compared to untreated controls,"[3]; 0.25, 0.5 and 0.75 μM Trichostatin A 24 h before 10 pfu/cell dl520, 3 days",significantly increased
same,CAR-positive cells,[4],56.2%
